In ChEMBL document CHEMBL1125386, “Small atrial natriuretic peptide analogues: design, synthesis, and structural requirements for guanylate cyclase activation” (J Med Chem, 1992) one finds KL data, which are given here for 17 compounds.

The experiment relates to Atrial natriuretic peptide receptor 1 (Oryctolagus cuniculus). The experiment is described as follows: Binding affinity towards the low-affinity site atrionatriuretic peptide receptor 1 of rabbit adrenal membrane.
Compound `CC[C@H](C)[C@@H]1NC(=O)[C@@H](CCCN=C(N)N)NC(=O)CNC(=O)CNC(=O)[C@@H](Cc2ccccc2)NC(=O)C(C)NC(=O)[C@H](NC(=O)[C@H](CO)NC(=O)[C@@H](N)CO)CSSC[C@H](C(=O)N2CC(C(=O)N[C@H](CCCN=C(N)N)C(=O)O)Cc3ccccc32)NC(=O)[C@@H]([C@@H](C)CC)NC(=O)[C@H](CCCN=C(N)N)NC(=O)[C@@H](CC(=O)O)NC1=O` (stereo in doubt) had a KL of 960 nM.

In turn, `CC[C@H](C)[C@@H]1NC(=O)[C@@H](CCCN=C(N)N)NC(=O)[C@@H](C)NC(=O)[C@@H](C)NC(=O)[C@@H](C2CCCCC2)NC(=O)[C@H](NC(=O)[C@H](N)CCCN=C(N)N)CSSC[C@H](C(N)=O)NC(=O)[C@@H](CCCN=C(N)N)NC(=O)[C@H](Cc2ccccc2)NC(=O)[C@@H]([C@@H](C)CC)NC(=O)[C@H](CCCN=C(N)N)NC(=O)[C@@H](CC(=O)O)NC1=O` yielded a KL of 200 nM. With `CC[C@H](C)[C@@H]1NC(=O)[C@@H](CCCN=C(N)N)NC(=O)CNC(=O)CNC(=O)[C@@H](Cc2ccccc2)NC(=O)C(C)NC(=O)[C@H](NC(=O)CCCCCCCN)CSSC[C@H](C(=O)N[C@H](Cc2ccccc2)C(=O)N[C@H](CCCN=C(N)N)C(=O)O)NC(=O)[C@@H]([C@@H](C)CC)NC(=O)[C@H](CCCN=C(N)N)NC(=O)[C@@H](CC(=O)O)NC1=O` (stereo in doubt), the KL was 790 nM. Compound `CC[C@H](C)[C@@H]1NC(=O)[C@@H](CCCN=C(N)N)NC(=O)CNC(=O)CNC(=O)[C@@H](Cc2cc(I)c(O)c(I)c2)NC(=O)[C@H](NC(=O)[C@H](N)CCCN=C(N)N)CSSC[C@H](C(N)=O)NC(=O)[C@@H](CCCN=C(N)N)NC(=O)[C@H](Cc2ccccc2)NC(=O)[C@@H]([C@@H](C)CC)NC(=O)[C@H](CCCN=C(N)N)NC(=O)[C@@H](CC(=O)O)NC1=O` had a KL of 1700 nM. The value for `CC[C@H](C)[C@@H]1NC(=O)[C@@H](CCCN=C(N)N)NC(=O)CNC(=O)CNC(=O)[C@@H](Cc2ccccc2)NC(=O)[C@@H](C)NC(=O)[C@H](NC(=O)[C@H](CO)NC(=O)[C@@H](N)CO)CSSC[C@H](C(=O)N[C@H](Cc2ccccc2)C(=O)N[C@H](CCCN=C(N)N)C(=O)O)NC(=O)[C@@H]([C@@H](C)CC)NC(=O)[C@H](C)NC(=O)[C@@H](CC(=O)O)NC1=O` was 7100 nM; that for `CC[C@H](C)[C@@H]1NC(=O)[C@@H](CCCN=C(N)N)NC(=O)CNC(=O)CNC(=O)[C@@H](Cc2ccccc2)NC(=O)CCNC(=O)[C@H](NC(=O)[C@H](CO)NC(=O)[C@@H](N)CO)CSSC[C@H](C(=O)N[C@H](Cc2ccccc2)C(=O)N[C@H](CCCN=C(N)N)C(=O)O)NC(=O)[C@@H]([C@@H](C)CC)NC(=O)[C@H](CCCN=C(N)N)NC(=O)[C@@H](CC(=O)O)NC1=O` was 6500 nM.

On to `CC[C@H](C)[C@@H]1NC(=O)[C@@H](CCCN=C(N)N)NC(=O)CNC(=O)CNC(=O)[C@@H](Cc2ccccc2)NC(=O)[C@H](NC(=O)[C@H](CO)NC(=O)[C@@H](N)CO)CSSC[C@H](C(=O)N[C@H](Cc2ccccc2)C(=O)N[C@H](CCCN=C(N)N)C(=O)O)NC(=O)[C@@H]([C@@H](C)CC)NC(=O)[C@H](CCCN=C(N)N)NC(=O)[C@@H](CC(=O)O)NC1=O`, for which the KL worked out at 4400 nM. As for `CC[C@H](C)[C@@H]1NC(=O)[C@@H](CCCN=C(N)N)NC(=O)CNC(=O)CNC(=O)[C@@H](Cc2ccccc2)NC(=O)[C@H](C2CCCCC2)NC(=O)[C@H](NC(=O)[C@H](CO)NC(=O)[C@@H](N)CO)CSSC[C@H](C(=O)N[C@H](Cc2ccccc2)C(=O)N[C@H](CCCN=C(N)N)C(=O)O)NC(=O)[C@@H]([C@@H](C)CC)NC(=O)[C@H](CCCN=C(N)N)NC(=O)[C@@H](CC(=O)O)NC1=O`, the KL worked out at 180 nM.

`CC[C@H](C)[C@@H]1NC(=O)[C@@H](CCCN=C(N)N)NC(=O)CNC(=O)CNC(=O)[C@@H](Cc2ccccc2)NC(=O)C(C)NC(=O)[C@H](N)CSSC[C@H](C(=O)N[C@H](Cc2ccccc2)C(=O)N[C@H](CCCN=C(N)N)C(=O)O)NC(=O)[C@@H]([C@@H](C)CC)NC(=O)[C@H](CCCN=C(N)N)NC(=O)[C@@H](CC(=O)O)NC1=O` (stereo in doubt): the KL is 2700 nM. Next, `CC[C@H](C)[C@@H]1NC(=O)[C@@H](CCCN=C(N)N)NC(=O)CNC(=O)CNC(=O)[C@@H](C2CCCCC2)NC(=O)[C@H](N)CSSC[C@H](C(N)=O)NC(=O)[C@@H](CCCN=C(N)N)NC(=O)[C@H](Cc2ccccc2)NC(=O)[C@@H]([C@@H](C)CC)NC(=O)[C@H](C)NC(=O)[C@@H](CC(=O)O)NC1=O`: 8900 nM; `CC[C@H](C)[C@@H]1NC(=O)[C@@H](CCCN=C(N)N)NC(=O)CNC(=O)CNC(=O)[C@@H](Cc2ccccc2)NC(=O)C(C)NC(=O)[C@H](NC(=O)[C@@H](N)CCCN=C(N)N)CSSC[C@H](C(=O)N[C@H](Cc2ccccc2)C(=O)N[C@H](CCCN=C(N)N)C(=O)O)NC(=O)[C@@H]([C@@H](C)CC)NC(=O)[C@H](CCCN=C(N)N)NC(=O)[C@@H](CC(=O)O)NC1=O` (stereo in doubt): 240 nM; `CC[C@H](C)[C@@H]1NC(=O)[C@@H](CCCN=C(N)N)NC(=O)CNC(=O)CNC(=O)[C@H](Cc2ccccc2)NC(=O)[C@H](NC(=O)[C@H](CO)NC(=O)[C@@H](N)CO)CSSC[C@H](C(=O)N[C@H](Cc2ccccc2)C(=O)N[C@H](CCCN=C(N)N)C(=O)O)NC(=O)[C@@H]([C@@H](C)CC)NC(=O)[C@H](CCCN=C(N)N)NC(=O)[C@@H](CC(=O)O)NC1=O`: 2000 nM. `CC[C@H](C)[C@@H]1NC(=O)[C@@H](CCCCN)NC(=O)CNC(=O)CNC(=O)[C@@H](C2CCCCC2)NC(=O)CCSSC[C@H](C(N)=O)NC(=O)[C@@H](CCCN=C(N)N)NC(=O)[C@H](Cc2ccccc2)NC(=O)[C@@H]([C@@H](C)CC)NC(=O)[C@H](CCCN=C(N)N)NC(=O)[C@@H](CC(=O)O)NC1=O` displayed a KL of 150 nM. `CC[C@H](C)[C@@H]1NC(=O)[C@H](CCCN=C(N)N)NC(=O)[C@@H](CC(=O)O)NC(=O)[C@H]([C@@H](C)CC)NC(=O)[C@H](CCCNC(N)=O)NC(=O)CNC(=O)CNC(=O)[C@@H](Cc2ccccc2)NC(=O)[C@@H](C)NC(=O)[C@@H](NC(=O)[C@H](CO)NC(=O)[C@@H](N)CO)CSSC[C@@H](C(=O)N[C@H](Cc2ccccc2)C(=O)N[C@H](CCCN=C(N)N)C(=O)O)NC1=O` came in with a KL of 6900 nM.

In turn, `CC[C@H](C)[C@@H]1NC(=O)[C@@H](CCCN=C(N)N)NC(=O)C2CCC(CC2)NC(=O)C2CCC(CC2)NC(=O)[C@@H](Cc2ccccc2)NC(=O)C(C)NC(=O)[C@H](NC(=O)[C@H](CO)NC(=O)[C@@H](N)CO)CSSC[C@H](C(=O)N[C@H](Cc2ccccc2)C(=O)N[C@H](CCCN=C(N)N)C(=O)O)NC(=O)[C@@H]([C@@H](C)CC)NC(=O)[C@H](CCCN=C(N)N)NC(=O)[C@@H](CC(=O)O)NC1=O` (stereo in doubt) had a KL of 1000 nM.

With `CC[C@H](C)[C@@H]1NC(=O)[C@@H](CCCN=C(N)N)NC(=O)CNC(=O)CNC(=O)[C@@H](Cc2ccccc2)NC(=O)C(C)NC(=O)[C@H](NC(=O)[C@@H](N)CCCCN)CSSC[C@H](C(=O)N[C@H](Cc2ccccc2)C(=O)N[C@H](CCCN=C(N)N)C(=O)O)NC(=O)[C@@H]([C@@H](C)CC)NC(=O)[C@H](CCCN=C(N)N)NC(=O)[C@@H](CC(=O)O)NC1=O` (stereo in doubt), the KL is 390 nM. Next, `CC[C@H](C)[C@@H]1NC(=O)[C@H](CCCN=C(N)N)NC(=O)[C@@H](CC(=O)O)NC(=O)[C@H]([C@@H](C)CC)NC(=O)[C@@H](CCCN=C(N)N)NC(=O)CNC(=O)CNC(=O)[C@@H](Cc2ccccc2)NC(=O)C(C)NC(=O)[C@@H](NC(=O)[C@H](CO)NC(=O)[C@@H](N)CO)CSSC[C@@H](C(=O)N2C[C@@H](C(=O)N[C@H](CCCN=C(N)N)C(=O)O)Cc3ccccc32)NC1=O` (stereo in doubt): 540 nM.
